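These data come from cells grown in 96-well plates and exposed to compound for 48 hours at five concentrations. GI50: concentration for 50% inhibition of growth.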 The source made the active and inactive calls. Rule as the data show it: active = GI50 up to about 1.1 µM and inactive = higher.
Columns and labels:
Experiment in all cases: DTP human tumour cell line panel, 48 h
SNB-75 = system: SNB-75
SK-MEL-2 = system: SK-MEL-2
RPMI-8226 = system: RPMI-8226
A498 = system: A498
HCT-15 = system: HCT-15
CCRF-CEM = system: CCRF-CEM
ACHN = system: ACHN
LOX IMVI = system: LOX IMVI
OVCAR-3 = system: OVCAR-3
HCT-116 = system: HCT-116
KM12 = system: KM12
EKVX = system: EKVX
IGROV-1 = system: IGROV-1
OVCAR-5 = system: OVCAR-5
PC-3 = system: PC-3
UACC-257 = system: UACC-257
RXF 393 = system: RXF 393
HL-60 = system: HL-60
HT-29 = system: HT-29
NCI-H522 = system: NCI-H522

SMILES: CCOC(=O)C(Cc1ccc(N(CCCl)CCCl)cc1)NC(=O)C(Cc1ccccc1)NC(C)=O (centres undefined)
- GI50 (SNB-75): > 1 µM (active)
- GI50 (SK-MEL-2): > 0.265 µM (active)
- GI50 (RPMI-8226): 0.0655 µM (active)
- GI50 (A498): > 0.288 µM (active)
- GI50 (HCT-15): > 0.378 µM
- GI50 (CCRF-CEM): 0.0353 µM (active)
- GI50 (ACHN): 0.0255 µM (active)
- GI50 (LOX IMVI): 0.111 µM (active)
- GI50 (OVCAR-3): 0.173 µM (active)
- GI50 (HCT-116): > 0.265 µM (active)
- GI50 (KM12): > 0.338 µM (active)
- GI50 (EKVX): > 0.347 µM (active)
- GI50 (IGROV-1): 0.0414 µM (active)
- GI50 (OVCAR-5): > 0.293 µM (active)
- GI50 (PC-3): > 0.254 µM (active)
- GI50 (UACC-257): 0.235 µM (active)
- GI50 (RXF 393): 0.106 µM (active)
- GI50 (HL-60): 0.0908 µM (active)

SMILES: COC(=O)[C@@H]1CCCN1CCN1CCC[C@H]1C(=O)OC
- GI50 (HT-29): > 100 µM (inactive)
- GI50 (SK-MEL-2): > 100 µM (inactive)
- GI50 (RPMI-8226): > 100 µM (inactive)
- GI50 (A498): > 100 µM (inactive)
- GI50 (HCT-15): > 100 µM
- GI50 (ACHN): > 100 µM (inactive)
- GI50 (OVCAR-3): > 100 µM (inactive)
- GI50 (HCT-116): > 100 µM (inactive)
- GI50 (KM12): > 100 µM (inactive)
- GI50 (NCI-H522): > 100 µM (inactive)
- GI50 (OVCAR-5): > 100 µM (inactive)
- GI50 (PC-3): > 100 µM (inactive)
- GI50 (RXF 393): > 100 µM (inactive)

SMILES: O=S(=O)(Cc1cnc(O)nc1O)Cc1cnc(O)nc1O
- GI50 (HT-29): > 100 µM (inactive)
- GI50 (SNB-75): > 100 µM (inactive)
- GI50 (SK-MEL-2): > 100 µM (inactive)
- GI50 (RPMI-8226): > 100 µM (inactive)
- GI50 (A498): > 100 µM (inactive)
- GI50 (HCT-15): > 100 µM
- GI50 (ACHN): > 100 µM (inactive)
- GI50 (LOX IMVI): > 100 µM (inactive)
- GI50 (HCT-116): > 100 µM (inactive)
- GI50 (KM12): > 100 µM (inactive)
- GI50 (EKVX): > 100 µM (inactive)
- GI50 (IGROV-1): > 100 µM (inactive)
- GI50 (NCI-H522): > 100 µM (inactive)
- GI50 (OVCAR-5): > 100 µM (inactive)
- GI50 (PC-3): > 100 µM (inactive)
- GI50 (UACC-257): > 100 µM (inactive)
- GI50 (RXF 393): > 100 µM (inactive)

SMILES: CCOc1cc(NC(C)=O)ccc1C(=O)NN1C(=O)/C(=C/c2ccc(Cl)cc2)N=C1c1ccccc1
- GI50 (HT-29): 52.6 µM (inactive)
- GI50 (SNB-75): 40.3 µM (inactive)
- GI50 (SK-MEL-2): 28.3 µM (inactive)
- GI50 (RPMI-8226): 25.9 µM (inactive)
- GI50 (A498): 24.9 µM (inactive)
- GI50 (HCT-15): 35.6 µM
- GI50 (CCRF-CEM): 25 µM (inactive)
- GI50 (ACHN): 51.1 µM (inactive)
- GI50 (LOX IMVI): 62.7 µM (inactive)
- GI50 (OVCAR-3): 33 µM (inactive)
- GI50 (HCT-116): 46.1 µM (inactive)
- GI50 (KM12): 34.3 µM (inactive)
- GI50 (EKVX): 26 µM (inactive)
- GI50 (IGROV-1): 18.1 µM (inactive)
- GI50 (OVCAR-5): > 100 µM (inactive)
- GI50 (PC-3): 43.5 µM (inactive)
- GI50 (UACC-257): 43.9 µM (inactive)
- GI50 (RXF 393): 33 µM (inactive)
- GI50 (HL-60): 34.1 µM (inactive)

SMILES: COc1ccc(/C(=N/OCCCC(=O)O)c2cccs2)cc1
- GI50 (HT-29): > 100 µM (inactive)
- GI50 (SNB-75): > 100 µM (inactive)
- GI50 (SK-MEL-2): > 100 µM (inactive)
- GI50 (RPMI-8226): > 100 µM (inactive)
- GI50 (A498): > 100 µM (inactive)
- GI50 (HCT-15): > 100 µM
- GI50 (CCRF-CEM): > 100 µM (inactive)
- GI50 (ACHN): > 100 µM (inactive)
- GI50 (LOX IMVI): > 100 µM (inactive)
- GI50 (OVCAR-3): > 100 µM (inactive)
- GI50 (HCT-116): > 100 µM (inactive)
- GI50 (KM12): > 100 µM (inactive)
- GI50 (EKVX): > 100 µM (inactive)
- GI50 (OVCAR-5): > 100 µM (inactive)
- GI50 (PC-3): > 100 µM (inactive)
- GI50 (UACC-257): > 100 µM (inactive)
- GI50 (RXF 393): > 100 µM (inactive)
- GI50 (HL-60): > 100 µM (inactive)

SMILES: CC(C)(C)OC(=O)N(O)[C@@H]1C=C[C@H](n2cnc3c(N)ncnc32)C1
- GI50 (SNB-75): 33.9 µM (inactive)
- GI50 (SK-MEL-2): > 100 µM (inactive)
- GI50 (RPMI-8226): > 100 µM (inactive)
- GI50 (A498): > 100 µM (inactive)
- GI50 (HCT-15): > 100 µM
- GI50 (CCRF-CEM): > 100 µM (inactive)
- GI50 (ACHN): > 100 µM (inactive)
- GI50 (LOX IMVI): > 100 µM (inactive)
- GI50 (OVCAR-3): > 100 µM (inactive)
- GI50 (HCT-116): > 100 µM (inactive)
- GI50 (KM12): > 100 µM (inactive)
- GI50 (EKVX): > 100 µM (inactive)
- GI50 (IGROV-1): 59 µM (inactive)
- GI50 (NCI-H522): > 100 µM (inactive)
- GI50 (OVCAR-5): > 100 µM (inactive)
- GI50 (PC-3): > 100 µM (inactive)
- GI50 (UACC-257): > 100 µM (inactive)
- GI50 (RXF 393): > 100 µM (inactive)

SMILES: Cc1cc(NC[C@H](O)[C@H](O)[C@H](O)CO)c(Sc2cc(=O)[nH]c(=O)[nH]2)cc1C
- GI50 (HT-29): > 62.5 µM (inactive)
- GI50 (SNB-75): > 62.5 µM (inactive)
- GI50 (SK-MEL-2): > 62.5 µM (inactive)
- GI50 (RPMI-8226): > 62.5 µM (inactive)
- GI50 (A498): > 62.5 µM (inactive)
- GI50 (HCT-15): > 62.5 µM
- GI50 (CCRF-CEM): > 62.5 µM (inactive)
- GI50 (ACHN): > 62.5 µM (inactive)
- GI50 (LOX IMVI): > 62.5 µM (inactive)
- GI50 (OVCAR-3): > 62.5 µM (inactive)
- GI50 (HCT-116): > 62.5 µM (inactive)
- GI50 (KM12): > 62.5 µM (inactive)
- GI50 (EKVX): > 62.5 µM (inactive)
- GI50 (IGROV-1): > 62.5 µM (inactive)
- GI50 (NCI-H522): > 62.5 µM (inactive)
- GI50 (OVCAR-5): > 62.5 µM (inactive)
- GI50 (PC-3): > 62.5 µM (inactive)
- GI50 (UACC-257): > 62.5 µM (inactive)
- GI50 (RXF 393): > 62.5 µM (inactive)

SMILES: C[C@@]12C[C@@H](c3ccccc3O1)N1Cc3ccccc3CSC1=N2
- GI50 (HT-29): 38.3 µM (inactive)
- GI50 (SNB-75): > 100 µM (inactive)
- GI50 (SK-MEL-2): > 100 µM (inactive)
- GI50 (RPMI-8226): > 100 µM (inactive)
- GI50 (A498): > 100 µM (inactive)
- GI50 (HCT-15): 37.3 µM
- GI50 (ACHN): > 100 µM (inactive)
- GI50 (LOX IMVI): 35.5 µM (inactive)
- GI50 (OVCAR-3): 35.4 µM (inactive)
- GI50 (HCT-116): 49.7 µM (inactive)
- GI50 (KM12): > 100 µM (inactive)
- GI50 (EKVX): > 100 µM (inactive)
- GI50 (IGROV-1): > 100 µM (inactive)
- GI50 (NCI-H522): 49.7 µM (inactive)
- GI50 (OVCAR-5): > 100 µM (inactive)
- GI50 (PC-3): 83.6 µM (inactive)
- GI50 (UACC-257): 66.5 µM (inactive)
- GI50 (RXF 393): > 100 µM (inactive)

SMILES: CC1(CCOCc2ccccc2)NC(=O)NC1=O (centres undefined)
- GI50 (HT-29): > 100 µM (inactive)
- GI50 (SK-MEL-2): > 100 µM (inactive)
- GI50 (A498): > 100 µM (inactive)
- GI50 (HCT-15): > 100 µM
- GI50 (ACHN): > 100 µM (inactive)
- GI50 (LOX IMVI): > 100 µM (inactive)
- GI50 (OVCAR-3): > 100 µM (inactive)
- GI50 (HCT-116): > 100 µM (inactive)
- GI50 (KM12): > 100 µM (inactive)
- GI50 (EKVX): > 100 µM (inactive)
- GI50 (IGROV-1): > 100 µM (inactive)
- GI50 (NCI-H522): > 100 µM (inactive)
- GI50 (OVCAR-5): > 100 µM (inactive)
- GI50 (PC-3): > 100 µM (inactive)
- GI50 (UACC-257): > 100 µM (inactive)
- GI50 (RXF 393): > 100 µM (inactive)

SMILES: CCCCCCNC(=O)CCC(NC(=O)c1ccc(N(C)Cc2cnc3nc(N)nc(N)c3n2)cc1)C(=O)NCCCCCC (centres undefined)
- GI50 (HT-29): 88.7 µM (inactive)
- GI50 (SNB-75): > 100 µM (inactive)
- GI50 (SK-MEL-2): > 100 µM (inactive)
- GI50 (RPMI-8226): 37.8 µM (inactive)
- GI50 (A498): > 100 µM (inactive)
- GI50 (HCT-15): > 100 µM
- GI50 (CCRF-CEM): > 100 µM (inactive)
- GI50 (ACHN): > 100 µM (inactive)
- GI50 (LOX IMVI): 12.4 µM (inactive)
- GI50 (OVCAR-3): > 100 µM (inactive)
- GI50 (HCT-116): > 100 µM (inactive)
- GI50 (KM12): > 100 µM (inactive)
- GI50 (EKVX): 37.4 µM (inactive)
- GI50 (IGROV-1): 16.2 µM (inactive)
- GI50 (NCI-H522): 63 µM (inactive)
- GI50 (OVCAR-5): > 100 µM (inactive)
- GI50 (PC-3): > 100 µM (inactive)
- GI50 (UACC-257): 37.1 µM (inactive)
- GI50 (RXF 393): 39.4 µM (inactive)

SMILES: CC(=O)c1c(N=[N+]=[N-])c2cccc3c2n(c1=O)CCC3
- GI50 (HT-29): 16.4 µM (inactive)
- GI50 (SNB-75): 24.8 µM (inactive)
- GI50 (SK-MEL-2): 21.7 µM (inactive)
- GI50 (RPMI-8226): 25.9 µM (inactive)
- GI50 (A498): 21.3 µM (inactive)
- GI50 (HCT-15): 19.7 µM
- GI50 (CCRF-CEM): 19.1 µM (inactive)
- GI50 (ACHN): 24.9 µM (inactive)
- GI50 (LOX IMVI): 15.1 µM (inactive)
- GI50 (OVCAR-3): 4.21 µM (inactive)
- GI50 (HCT-116): 15.6 µM (inactive)
- GI50 (KM12): 14.6 µM (inactive)
- GI50 (EKVX): 21.3 µM (inactive)
- GI50 (IGROV-1): 20.1 µM (inactive)
- GI50 (NCI-H522): 13.9 µM (inactive)
- GI50 (OVCAR-5): 15.2 µM (inactive)
- GI50 (PC-3): 17.3 µM (inactive)
- GI50 (UACC-257): 16.6 µM (inactive)
- GI50 (RXF 393): 20.5 µM (inactive)

— ChEMBL document CHEMBL1201862, “PubChem BioAssay data set” (2004)
